In the Deep4Chem optical property database one finds emission maximum data, which are given here for 32 molecules.

SMILES strings stand for the structures.

A short description of the data set: solvent given as SMILES.

`CC1=C(C(C)(C)C)C(C)=[N+]2C1=C(C)c1c(C)c(C(C)(C)C)c(C)n1[B-]2(F)F` showed an emission maximum (in C1CCCCC1) of 571.2 nm; an emission maximum (in C1CCOC1) of 566.6 nm; an emission maximum (in C1COCCO1) of 565.4 nm; an emission maximum (in CC#N) of 560.6 nm; an emission maximum (in CC(C)=O) of 563.6 nm; an emission maximum (in CC(C)CC(C)(C)C) of 569 nm. For the same molecule, the emission maximum (in CCC(C)C) came to 569 nm; the emission maximum (in CCCC(C)=O) was 562.6 nm; the emission maximum (in CCCCCC) is given as 567.8 nm; the emission maximum (in CCCCCCCCO) stood at 565 nm; the emission maximum (in CCCCCCO) is listed as 565.4 nm; the emission maximum (in CCCCO) was 566.6 nm. For the same molecule, the emission maximum is, setting by setting: (in CCCCOC(C)=O) 564.6 nm; (in CCCO) 564.6 nm; (in CCO) 563.2 nm; (in CCOC(C)=O) 562.4 nm; (in CCOCC) 565.4 nm; (in CN(C)C=O) 565.4 nm. The emission maximum runs as follows: (in CNC=O) 560.6 nm; (in CO) 561.2 nm; (in COC(C)=O) 561.8 nm; (in OCC(F)(F)F) 561.2 nm.
Consider `CCCCCCC(CCCCCC)N1C(=O)c2cccc3c(-c4ccc([Si](C)(C)C)cc4)ccc(c23)C1=O`, for which the emission maximum runs as follows: (in CCCCCC) 406.7 nm; (in CCCCCCCCCCCCCC) 407 nm; (in CCCCCCCCCCCO) 430.6 nm; (in CCCCO) 434.2 nm; (in CN(C)C=O) 432.7 nm; (in Cc1ccccc1) 416.7 nm. The molecule further returned an emission maximum (in ClC(Cl)Cl) of 425.4 nm.
In the case of `CCN(CC)c1ccc(/C=N/C(C#N)=C(C#N)\N=C\c2ccc(N(CC)CC)cc2O)c(O)c1`, the emission maximum (in CC#N) is given as 606 nm.
Consider `C(=C(c1ccccc1)c1ccccc1)c1ccc(-c2cc(-c3ccc(C=C(c4ccccc4)c4ccccc4)cc3)cc(-c3ccc(C=C(c4ccccc4)c4ccccc4)cc3)c2)cc1`, for which the emission maximum (in C1CCOC1) is given as 446 nm.
`NNC(=O)N1C(=O)c2cc(S(=O)(=O)[O-])cc3c(N)c(S(=O)(=O)[O-])cc(c23)C1=O`: the emission maximum (in O) was determined as 535 nm.
For the molecule `Cc1cccc(C)c1-c1cc2c(C)c3c4cc5nc6ccc7c8c(C)c9cc(-c%10c(C)cccc%10C)c(-c%10c(C)cccc%10C)cc9c(C)c8c7c6nc5cc4c3c(C)c2cc1-c1c(C)cccc1C`, the emission maximum (in ClC(Cl)Cl) was determined as 576 nm.
Consider `c1ccc(-c2nc(-c3ccc(N4c5ccccc5Sc5ccccc54)cc3)nn2-c2ccc(N3c4ccccc4Sc4ccccc43)cc2)nc1`, for which the emission maximum (in ClCCl) is 490 nm.
`Cc1ccc(/C2=c3\cc/c(o3)=C(\c3ccc(C)cc3)c3ccc([nH]3)-c3ccc4n3[B-](F)(F)[N+]3=C(C=CC3=C4c3ccco3)c3ccc2[nH]3)cc1`: the emission maximum (in ClC(Cl)Cl) is 731 nm.
Regarding `Cc1cc(C#Cc2ccccc2)c2ccc3c(C#Cc4ccccc4)cc(C#Cc4ccccc4)c4ccc1c2c43`, the emission maximum by setting is: (in CS(C)=O) 461 nm; (in ClC(Cl)(Cl)Cl) 460 nm.
For the setting “in CS(C)=O”, `Cc1cccn2c1cc1c3ccccc3nc(-c3ccco3)c12` had an emission maximum of 502 nm.
`O=c1c2cc3ccc4cccc5ccc(c2c(=O)n1-c1ccccc1)c3c45`: under “in ClC(Cl)Cl”, the emission maximum is reported as 461 nm.
Turning to `CC(=O)c1nc(-c2ccc(N(C)C)cc2)oc1C`, the emission maximum came out at 376 nm (in CC#N); 377 nm (in CCO); 370 nm (in CCOC(C)=O); 368 nm (in CCOCC); 373 nm (in ClCCl).
Regarding `F[B-]1(F)n2c(c3cccc4cccc2c43)=Nc2sc3ccccc3[n+]21`, the emission maximum stood at 501 nm (in C1CCOC1); 500 nm (in CC#N); 493 nm (in CCCCCC); 504 nm (in Cc1ccccc1); 529 nm (in ClCCl).
With `CCOC(=O)C1=CN(c2ccccc2)C=CC1c1ccccc1` (stereo not drawn), the emission maximum by setting is: (in C1CCOC1) 419 nm; (in CO) 442 nm.
`CC(C)(C)c1ccc2c(c1)c1cc(C(C)(C)C)ccc1n2-c1ccc(C#Cc2ccc3c4ccc(C#Cc5ccc(-n6c7ccc(C(C)(C)C)cc7c7cc(C(C)(C)C)ccc76)cc5)cc4n(-c4ccc(C(F)(F)F)cc4)c3c2)cc1` came in with an emission maximum (in ClCCl) of 431 nm.
In turn, `CCCCn1c(=O)c2cc3ccc4cccc5ccc(c2c1=O)c3c45` yielded an emission maximum (in ClC(Cl)Cl) of 460 nm.
`CC1=C(C2=C(C)C(C)=[N+]3C2=Cc2cc(C)c(C)n2[B-]3(F)F)C2=Cc3cc(C)c(C)n3[B-](F)(F)[N+]2=C1C` came in with an emission maximum (in ClCCl) of 598 nm.
Still for that read-out and setting: in the case of `CC(C)(C)OC(=O)/C=C/C1=CC2=C(c3ccccc3)c3cccn3[B-](F)(F)[N+]2=C1` it was 575 nm.
`C[n+]1ccn(CCCCc2ccc3c(c2)c2ccccc2n3-c2cc(C#N)c(C#N)cc2F)c1` gave an emission maximum (in CC#N) of 558 nm.
The molecule `COc1ccc(C2=C(c3ccc(OC)cc3)c3cccc4c3c(cc3nc5ccccc5nc34)O2)cc1` displayed an emission maximum (in ClCCl) of 572 nm.
On to `CN1/C(=C/C=C(/C=C/c2sc3ccccc3[n+]2C)c2ccc(C(F)(F)F)cc2)Sc2ccccc21`, for which the emission maximum is, setting by setting: (in CCO) 678 nm; (in CO) 676 nm; (in CS(C)=O) 668 nm; (in O) 659 nm.
`CCB1c2ccccc2Nc2ccccc21` returned an emission maximum (in ClCCl) of 494 nm.
On the same count and under the same terms, in the case of `CC[C@H](C)COc1ccc(C2=C3C(C)=CC(C)=[N+]3[B-](F)(F)n3c(C)cc(C)c32)cc1` it was 520 nm.
As for `O=C1NC(=O)/C(=C\c2ccccc2O)S1`, the emission maximum (in C1CCCCC1) worked out at 397 nm; the emission maximum (in C1COCCO1) was found to be 418 nm; the emission maximum (in CC#N) is listed as 428 nm; the emission maximum (in CN(C)C=O) is 424 nm; the emission maximum (in CO) worked out at 428 nm; the emission maximum (in O) turned out to be 480 nm. This molecule gave an emission maximum (in OCC(O)CO) of 451 nm and an emission maximum (in OCCO) of 440 nm.
Take `CCCCn1c(-c2ccc(-c3nnc(-c4ccccc4)o3)cc2)nc2c3ccccc3c3ccccc3c21`: the emission maximum (in ClCCl) was 446 nm.
The molecule `N#Cc1nc(N(Cc2ccccc2Br)Cc2ccccc2Br)c(C#N)nc1N(Cc1ccccc1Br)Cc1ccccc1Br` showed an emission maximum (in ClC(Cl)Cl) of 565 nm.
Consider `CCN(CC)c1ccc(/C=N/C(C#N)=C(C#N)/N=C/c2ccc(N(CC)CC)cc2O)c(O)c1`, for which the emission maximum is 609 nm (in CC#N), 618 nm (in CN(C)C=O) and 612 nm (in ClCCl).
As to `N#Cc1c(C#N)c2cc(F)ccc2c2ccc(F)cc12`, the emission maximum (in ClC(Cl)Cl) stood at 374 nm.
With `O=C1c2cccc3c(NCc4ccccn4)c4ccccc4c(c23)C(=O)N1Cc1ccccn1`, the emission maximum is, setting by setting: (in C1CCOC1) 609 nm; (in CCCCCC) 594 nm; (in CCO) 615 nm; (in Cc1ccccc1) 606 nm; (in ClCCl) 611 nm.
In the case of `CCn1c2ccccc2c2cc(/C=C/c3cc(/C=C/c4ccc5c(c4)c4ccccc4n5CC)[n+](CCCS(=O)(=O)[O-])c(/C=C/c4ccc5c(c4)c4ccccc4n5CC)c3)ccc21`, the emission maximum (in C1CCOC1) was 605 nm, the emission maximum (in CC#N) turned out to be 611 nm, the emission maximum (in CC(C)=O) is 610 nm and the emission maximum (in Cc1ccccc1) amounted to 599 nm.
Under “in ClC(Cl)Cl”, `F[B-]1(F)OC(c2ccc(Br)cc2)=Cc2c3ccccc3c3ccccc3[n+]21` showed an emission maximum of 449 nm.
Take `N#Cc1ccc(/C=C/c2ncc(-c3ccccc3)o2)cc1`: the emission maximum (in ClCCl) was determined as 450 nm.
